Test results published in the METLIN SMRT retention time set (Domingo-Almenara et al. 2019).

Experiment: gradient 5% acetonitrile 3 min, to 50% in 2 min, to 85% in 15 min, held 3 min, 100 µL/min
Settings: column: Zorbax Extend-C18 2.1 x 50 mm; eluents: water / acetonitrile, 0.1% formic acid
In short: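 Each retention time is based on an adduct peak selected computationally and verified by manual inspection. Measurements used HPLC–quadrupole time-of-flight mass spectrometry in positive and negative ionization mode on mixtures of ~100 pure standards. Chromatography ran on a Zorbax Extend-C18 column (2.1 × 50 mm, 1.8 μm) at 100 μL/min with water and acetonitrile, each containing 0.1% formic acid, and dead and dwell volumes of 40 μL and 900 μL.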

| SMILES | RP-LC retention time [s] |
| --- | --- |
| COc1ccc(-n2nc3c(N4CCCC(C(=O)NCc5ccccn5)C4)nnc(C)c3c2C)cc1 (stereo not drawn) | 591 |
| Cc1cc(C)c2c(N3CCSCC3)nc(C(=O)NCc3cccs3)nc2n1 | 746 |
| CC1CCCN(c2ccc(NC(=O)Cc3cccs3)c(C(=O)O)c2)C1 (stereo not drawn) | 685 |
| O=C(CN1CCN(C(=O)Cc2cccs2)CC1)c1ccco1 | 538 |
| Cc1cc2c(c(=O)n(-c3ccccc3)c(=O)n2CC(=O)Nc2ccccc2C(F)(F)F)n1C | 904 |
| CCc1nc2cc(-c3noc(Cc4c[nH]c5ccccc45)n3)ccc2o1 | 1020 |
| Cc1ccc(C2CC(=O)c3cnc(Nc4nc(C)c5cc(C)c(C)cc5n4)nc3C2)cc1 (stereo not drawn) | 862 |
| CC(C)c1nnc(-c2ccc(S(=O)(=O)NC3CCCCCC3)o2)o1 | 985 |
| CCOc1ccc(Cc2nc(-c3ccc4oc(C)nc4c3)no2)cc1OCC | 1040 |
| CCOC(=O)C1CCN(C(=O)Cn2c(=O)oc3ccc(C(=O)N4CCCCC4)cc32)CC1 | 759 |
| Cn1cc(-c2nc(C(=O)Nc3ccccc3F)cs2)c2cccnc21 | 1040 |
| CCn1c(=O)c(N2CCCC(C(=O)N3CCN(c4ccc(OC)cc4)CC3)C2)nc2ccccc21 (stereo not drawn) | 987 |
| CCNC(=O)C1CCCN(c2nc3ncn(CC(=O)Nc4ccc(C)c(C)c4)c(=O)c3s2)C1 (stereo not drawn) | 711 |
| COCCCNC(=O)C(C)n1c(=O)c(C(F)(F)F)nc2cc(C)c(C)cc21 (stereo not drawn) | 1010 |
| Cc1nc2cccnc2n1-c1cccc(C(=O)N2CCN(c3ccccn3)CC2)c1 | 568 |
| O=C([C@@H]1CC(F)(F)CN1C(=O)CCn1c(=O)oc2ccccc21)N1CCCC1 | 718 |
| O=C(Cc1nnc(-c2ccccc2)o1)N1CCSCC1 | 698 |
| O=C(C1=CN(c2cccc(Br)c2)c2ccccc2S1(=O)=O)N1CCCC1 | 819 |
| CCN1C(=O)C2(CCN(S(=O)(=O)c3ccc(C)c(Cl)c3)CC2)c2ccccc21 | 1170 |
| COc1ccc(N2CCN(c3cc(SCC(=O)Nc4ccc5c(c4)OCO5)ncn3)CC2)cc1 | 900 |
| COCCCNC(=O)C1CCCN(c2cnc3nccnc3c2)C1 (stereo not drawn) | 602 |
| Cc1onc(-c2ccc(F)cc2F)c1C(=O)NC(C)C | 789 |
| CCNC(=O)Cc1nnc(-c2ccc(OC)cc2)o1 | 634 |

| SMILES | RP-LC retention time [s] |
| --- | --- |
| Cn1cc(-c2ccc(Cl)cc2)cc1C(=O)NCc1ccco1 | 1020 |
| O=C(Cc1ccc(Br)cc1)Nc1cc(-c2ccsc2)no1 | 983 |
| Cc1cc(NC(=O)CSc2nnc(CNC(=O)c3c(F)cccc3Cl)o2)no1 | 657 |
| CCCN1CCN(c2ccc(-c3nc(-c4ccc(C)cc4)no3)cn2)CC1 | 750 |
| Cc1ccc(S(=O)(=O)N2CCCCC2)cc1-c1nnc(-c2ccccc2)o1 | 1130 |
| COc1cccc(-n2cc(C(=O)OCc3ccncc3)c3ccccc3c2=O)c1 | 714 |
| Cc1noc(CNC(=O)C2CCN(C(=O)c3ccc4ncsc4c3)CC2)n1 | 574 |
| CC1CCCCN1S(=O)(=O)c1ccc2nc(N3CCN(c4ccccn4)CC3)ccc2c1 (stereo not drawn) | 674 |
| COCCOC1CCC12CCN(C(=O)c1cn[nH]c1)CC2 (stereo not drawn) | 617 |
| Cc1cc(C)cc(NC(=O)Cc2csc3nc(-c4ccccc4)cn23)c1 | 880 |
| COc1cc(NC(=O)C2CCCN(c3nc(C)nc4oc(C)c(C)c34)C2)cc(OC)c1 (stereo not drawn) | 915 |
| Cc1ccc(NC(=O)Nc2nccn(-c3ccc(F)c(F)c3)c2=O)cc1F | 1020 |
| CC(=O)NC[C@H]1CN(c2ccc(-c3ccc(CNCc4cn[nH]n4)cc3)c(F)c2)C(=O)O1 | 647 |
| COCC(=O)N(C1CCOCC1)C1CCN(S(=O)(=O)c2ccccc2C)CC1 | 737 |
| CCN(CCN(C)C)c1ccc(C(=O)O)cc1NS(=O)(=O)c1ccc(Br)cc1 | 648 |
| Clc1ccc(C(Cn2ccnc2)OCc2c(Cl)cccc2Cl)c(Cl)c1 (stereo not drawn) | 929 |
| Cc1cc2c(c(=O)n(-c3ccccc3)c(=O)n2CC(=O)Nc2ccc(C(F)(F)F)cc2)n1C | 927 |
| CCn1cc(-c2ccc(Cl)cc2)cc1C(=O)N1CCOCC1 | 953 |
| O=C(NC1(c2nc(-c3ccccc3)no2)CCCCC1)c1cccc(F)c1 | 1180 |
| Cc1noc(C2CN(C(=O)CCC3CCCC3)CC23CCOCC3)n1 (stereo not drawn) | 814 |
| CCn1c(=O)c(C(=O)N2CCN(c3ccccn3)CC2)nc2cc(C)c(C)cc21 | 625 |
| Cc1ccc(-c2nc3ncccn3c2NCc2ccccc2)cc1 | 729 |

Results, then the compound that gave them:

| RP-LC retention time [s] | SMILES |
| --- | --- |
| 877 | Cc1ccc(NC(=O)N2CCC(n3cnc4c(Cl)cccc4c3=O)CC2)cc1C |
| 901 | O=C(CC1CCCCC1)N1CCN(c2ccc(=O)n(-c3ccc(F)cc3)n2)CC1 |
| 748 | COc1ccc(CNC(=O)C2(C)Oc3cccnc3N(C)C2=O)cc1 (stereo not drawn) |
| 784 | COc1ccc(S(=O)(=O)N2CCC(c3noc(-c4cnccn4)n3)C2)cc1 (stereo not drawn) |
| 644 | Cc1ccc2c(Nc3ccc(C)c(C)c3)c(C(=O)N3CCSCC3)cnc2n1 |
| 787 | Cc1ccc(C(C)NC(=O)c2cn3ccncc3n2)c(C)c1 (stereo not drawn) |
| 903 | O=C(CCc1nnc2c(N3CCCCC3)nc3ccccc3n12)NCc1ccccc1F |
| 787 | O=C(NC1CCN(c2cc(-c3ccc(Cl)cc3)[nH]n2)C1)c1ccccc1Br (stereo not drawn) |
| 850 | O=C(NC1CCCc2c1[nH]c1c(Cl)cccc21)c1ccncc1 (stereo not drawn) |
| 1190 | O=S(=O)(c1ccc2c(c1)CCC2)N1CCc2nc(-c3ccccc3)ncc2C1 |
| 822 | CCOc1ccccc1C(=O)Nc1ccc2c(c1)Sc1ncccc1C(=O)N2CC |
| 682 | Cn1cc(-c2ccncc2)cc1C(=O)N1CCN(c2ccc(Cl)cc2)CC1 |
| 890 | COc1ccc(Cl)cc1NC(=O)NCCCn1c(C(F)(F)F)nc2cccnc21 |
| 774 | Cc1ccc(CNC(=O)CN2C(=O)NC3(CCCCC3)C2=O)cc1 |
| 656 | Cc1ccc(CNC(=O)c2ccc3ncnc(N4CCCC4)c3c2)cc1 |
| 664 | CN(C)C(=O)c1ccc(-c2nnc3ccc(NC(=O)C4CCC4)cn23)cc1 |
| 872 | O=C(NCCc1csc(-c2cccs2)n1)C1CCN(S(=O)(=O)c2ccccc2F)CC1 |
| 615 | Cc1ccc2c(=O)c3c([nH]c2c1C)CCN(CC(=O)Nc1ccc(F)cc1F)C3 |
| 901 | COC(=O)c1cc(OCc2cccc(OC)c2)c2cc(OC)ccc2n1 |
| 682 | COc1cc(NC(=O)Cn2nc3c4cc(C)ccc4ncn3c2=O)cc(OC)c1 |
| 835 | COc1ccc(-c2cn3c(CC(=O)N4CCN(c5cccc(Cl)c5)CC4)csc3n2)cc1OC |
| 696 | COc1ccc(NS(=O)(=O)c2cc3n(c2)CCCN(C)C3=O)cc1Cl |

| RP-LC retention time [s] | SMILES |
| --- | --- |
| 800 | Cc1cc(C)cc(NC(=O)N2CCC(N3CCN(Cc4cccc(F)c4)C(=O)C3=O)CC2)c1 |
| 835 | CN(C(=O)c1c2c(cn(-c3ccccc3)c1=O)C(=O)CC(C)(C)C2)c1ccc(F)cc1 |
| 759 | Cc1nc(CC(=O)Nc2ccc(F)c(Cl)c2)sc1C(=O)NC1CC1 |
| 778 | CC(=O)c1sc(Nc2nc3cc4c(cc3s2)OCO4)nc1C |
| 667 | CC(C)N1CCCC(Cn2cc(COc3ccc4c(c3)CCC4)nn2)C1 (stereo not drawn) |
| 605 | CCOc1ccc(CNc2ccc3[nH]c(=O)[nH]c3c2)cc1 |
| 910 | CN1C(=O)c2cccnc2Sc2cc(NC(=O)c3cccc(C(F)(F)F)c3)ccc21 |
| 747 | O=C(Nc1ccc2c(c1)OCO2)C1CCCN(S(=O)(=O)c2c[nH]c(C(=O)N3CCCC3)c2)C1 (stereo not drawn) |
| 1180 | CCn1cc(C2=CCN(S(=O)(=O)c3ccc(C)c(Cl)c3)CC2)c2cccnc21 |
| 629 | COc1ccc(S(=O)(=O)N2CCCC2)cc1C(=O)NC1CCS(=O)(=O)C1 (stereo not drawn) |
| 614 | CO[C@@H](C(=O)N1Cc2[nH]nc(NC(=O)c3ccc(N4CCN(C)CC4)cc3)c2C1)c1ccccc1 |
| 645 | CCN1C(=O)c2cccnc2Sc2cc(NC(=O)CCOC)ccc21 |
| 928 | CCc1onc(C)c1C1CCCN1C(=O)c1cc(-c2ccc3c(c2)OCO3)on1 (stereo not drawn) |
| 720 | COc1ccc(-c2cc(=O)n3c4ccccc4n(CC(=O)Nc4ccc5c(c4)OCO5)c3n2)cc1 |
| 690 | O=C(Nc1cccc(-c2ccc(N3CCCC3)nn2)c1)Nc1c(F)cccc1F |
| 725 | COc1ccc(CC(=O)N2C[C@@H]3C[C@H](NC(=O)c4ccccc4)[C@H]2C3)cc1 |
| 695 | COCCc1noc(-c2ccc(=O)n(CC(=O)Nc3ccccc3)c2)n1 |
| 676 | COCCNC(=O)Cc1ccc(NS(=O)(=O)c2ccccc2Cl)cc1 |
| 887 | COc1ccccc1NC(=O)c1cnc(-c2ccccc2)nc1-c1ccncc1 |
| 1130 | Clc1cccc(-c2noc(-c3nc(-c4ccncc4)no3)n2)c1 |
| 639 | CC1CCN(C(=O)C(=O)NCc2n[nH]c(=O)c3ccccc23)CC1 |
